Where a name gives a salt, the structure may show the parent alone.
How the values were obtained:
[1] = HPLC assay of the impurity of the Formula (II) in the duloxetine salt obtained; format: physicochemical; conditions: rearrangement product of duloxetine, salt as obtained, limit of detection 0.01 percent by weight
Protocol: The limit of detection for the compound of the Formula (II) is a feature of the high-performance liquid chromatographic method used for the assay thereof. Using the chromatographic method disclosed in the present application, said limit of detection is 0.01 percent by weight.
The analysis is carried out using ultraviolet absorption detector under the following chromatographic conditions:
Column, Chiral OD-R, 250*4,6 mm, 10 μm particle size • Flow rate, 1.0 ml/minute • Injection volume, 10 μl • Column temperature, 40° C. • Temperature of sample compartment, 20° C. • Detection wavelength, 220 nm • Mobile phase A: solution of 40 g of sodium hydroxide and 85 ml of concentrated perchloric acid are dissolved in 200 ml of distilled water, pH 2.1 • B: acetonitrile • Eluent composition, isocratic, 55 percent by volume mobile phase A • Analysis time, 30 minutes • Sample concentration, 10 mg/10 ml • Sample solvent, water-acetonitrile 80:20 volume/volume • Needle wash, water-acetonitrile […] volume/volume • Selectivity factor, >4 • Number of theoretical plates, min. 10000 • Asymmetry factor, <2
The assay is carried out according to the requirements of the pharmacopoeia regarding the determination of the impurities.
(§1) A sample containing approximately 100 mg of duloxetine is thoroughly homogenized in a mortar, weighed with analytical precision and transferred into a suitable volumetric flask. 80 ml of 80:20 volume by volume mixture of water and acetonitrile are added to the sample and the suspension is shaked in an ultrasonic bath for 10 minutes at the temperature of 25° C. The suspension is filtered and completed to 100 ml with the extraction solvent.

[2] = Stability testing of duloxetine-containing medicinal products (HPLC, mass spectrometry); format: physicochemical; conditions: during manufacture of the salt and during shelf-life of the medicinal products prepared from it
Protocol: During the process of stability testing, the identity and concentration of individual impurities present in the medicinal product are determined as the function of time and storage conditions. In the aforementioned tests, generally high-performance liquid chromatography and mass spectrometry are used as analytical methods.
In order to identify the above mentioned impurities, each of them has been separated by high-performance liquid chromatography and their molecular weight was determined by mass spectrometry.
Subsequently, the compound of the Formula (II) has been prepared by the rearrangement of duloxetine hydrobromide in pure form and in good yield and the thus obtained product was subjected to structure elucidation. The identity of the thus obtained (±)-N-methyl-3-(2-thienyl)-3-(4-hydroxy-1-naphtyl)-propylamine of the Formula (II) with the impurity observed during the stability testing has been established using high-performance liquid chromatography and mass spectrometry.
The following sample preparation method has been used during the stability testing of duloxetine-containing medicinals products and assay of duloxetine active ingredients.
as §1, with “solvent. A 10-μl portion of the thus obtained solution is analyzed by the high-performance liquid chromatographic method of Example 9.” for “solvent.”

[3] = preparation of salts with strong mineral acids, especially hydrobromic acid; 25 to 50° C.

Row | melting point [°C] | Molecule | amount of the impurity of the Formula (II) in the product [1] | formation of (±)-N-methyl-3-(2-thienyl)-3-(4-hydroxy-1-naphtyl)-propylamine of the Formula (II) [2] | time in which the compound of the Formula (II) forms [3]
1 | 190 to 196 | CNCCC(c1cccs1)c1ccc(O)c2ccccc12 (racemic) | – | – | –
2 | – | CNCCC(Oc1cccc2ccccc12)c1cccs1.O=C(O)C(O)c1ccccc1 (stereo not drawn) [Example 3, (+)-N-methyl-3-(1-naphtyloxy)-3-(2-thienyl)-propylamine(−)-mandelate (1:1)] | less than 0.01 percent by weight | can be detected neither during the manufacture of the above-mentioned particularly preferable salts, nor during the shelf-life | –
3 | – | CNCC[C@H](Oc1cccc2ccccc12)c1cccs1 [Example 6, (+)-N-methyl-3-(1-naphtyloxy)-3-(2-thienyl)-propylamine hydrochloride (1:1), reference compound] | approximately 0.05 percent by weight | – | –
4 | – | CNCC[C@H](Oc1cccc2ccccc12)c1cccs1 [duloxetine, (+)-(S)—N-methyl-3-(1-naphtyloxy)-3-(2-thienyl)-propylamine] | – | – | a few minutes
5 | – | (+)-N-methyl-3-(1-naphtyloxy)-3-(2-thienyl)-propylamine citrate (1:1) [Example 1] | less than 0.01 percent by weight | can be detected neither during the manufacture of the above-mentioned particularly preferable salts, nor during the shelf-life | –
6 | – | (+)-N-methyl-3-(1-naphtyloxy)-3-(2-thienyl)-propylamine fumarate (1:1) [Example 2] | less than 0.01 percent by weight | can be detected neither during the manufacture of the above-mentioned particularly preferable salts, nor during the shelf-life | –

— US20090209617A1, “DULOXETINE SALTS” (priority 2006, published 2009)
